Measured values reported in PMC11520566, “Discovery of pyrazole-based analogs as CDK2 inhibitors with apoptotic-inducing activity: design, synthesis and molecular dynamics study” (RSC Advances, 2024).

System: SN12C
Test: NCI 60 five dose assay, Renal cancer
Format: cell-based, human

## CC(=NNc1ccc(S(N)(=O)=O)cc1)c1ccc(NN=C2C(=O)NN=C2Nc2ccccc2)cc1 [Compound 4, 4-(2-(1-(4-(2-(5-oxo-3-(phenylamino)-1,5-dihydro-4H-pyrazol-4-ylidene)hydrazinyl)phenyl)ethylidene)hydrazinyl)benzene sulfonamide]
Homo sapiens
  GI50: 2.38 µM
Homo sapiens, read-out: LC50 (the source's name)
  CC50: 23.5 µM
Log10 Concentration -4.0 Molar
  Percent Growth: -100%
Log10 Concentration -5.0 Molar
  Percent Growth: -21%
Log10 Concentration -6.0 Molar
  Percent Growth: 93%
Log10 Concentration -7.0 Molar
  Percent Growth: 92%
Log10 Concentration -8.0 Molar
  Percent Growth: 95%
